How the values were obtained:
[1] = biological target: T1, human brain-derived dopamine D4 receptor (Homo sapiens, UniProt P21917); test: Agonistic activity in G protein dependent pathway of dopamine D4 receptor (aequorin intracellular calcium luminescence, FDSS); type: cell-based; settings: for EC50: concentration required to achieve a 50% response of Emax, CHO-K1 or HEK293 cells transfected with D4 receptor; for Emax: read-out: Maximal activity on D4 receptor (%)
T1 construct: expressed in transfected cells; host or cells: CHO (CHO-K1) or HEK293 cells
T1 sequence (P21917 1-419): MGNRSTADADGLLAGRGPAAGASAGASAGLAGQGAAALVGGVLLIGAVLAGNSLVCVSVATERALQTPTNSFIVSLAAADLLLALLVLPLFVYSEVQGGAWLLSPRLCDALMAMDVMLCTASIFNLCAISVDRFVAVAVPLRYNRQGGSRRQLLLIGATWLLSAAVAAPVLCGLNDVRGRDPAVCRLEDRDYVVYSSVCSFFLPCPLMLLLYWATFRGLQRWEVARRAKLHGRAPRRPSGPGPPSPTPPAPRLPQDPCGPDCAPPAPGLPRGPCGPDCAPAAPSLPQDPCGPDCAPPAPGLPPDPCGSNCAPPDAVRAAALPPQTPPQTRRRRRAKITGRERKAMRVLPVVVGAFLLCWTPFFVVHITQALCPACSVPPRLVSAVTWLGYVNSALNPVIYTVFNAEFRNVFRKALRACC
How it was run: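 CHO-K1 or HEK293 cells transfected with D4 receptor, cultured 24 h at 37 °C, preloaded with coelenterazine; aequorin luminescence recorded on FDSS after compound addition. Emax taken as maximal activity; EC50 as concentration giving 50% of Emax.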

[2] = Brain penetration study in rat (Kp,uu,brain); type: in vivo; settings: brain and plasma (unbound); 7-week-old SD-type or WKY-type rat; subcutaneous or oral administration; plasma and brain collected 0.5, 1 or 2 hours after administration; LC-MS; read-out: Kp,uu,brain (Unbound brain-to-plasma drug concentration ratio)
Description: In this study, the brain penetration of the present compounds can be evaluated. Specifically, a 7-week-old SD-type or WKY-type rat received the subcutaneous administration of a solution of the present compound in saline or the oral administration of a suspension of the present compound in methylcellulose. Plasma and brain were collected from the treated rat 0.5 hour, 1 hour or 2 hours after the administration, and then the concentrations of the present compound in the plasma and the brain were measured by a LC-MS method.
The protein binding ratios of the present compound to the plasma and the brain were measured by an equilibrium dialysis method.
The concentrations of the present compound in the plasma and the brain as well as the plasma and brain protein binding ratios are applied to the following formula, and thus Kp,uu,brain (Unbound brain-to-plasma drug concentration ratio) can be calculated.
Kp,uu,brain=(the concentration of the present compound in the brain×(100−the brain protein binding ratio (%))/100)/(the concentration of the present compound in the plasma×(100−the plasma protein binding ratio (%))/100)

Compound	EC50 [1]	Emax [1]	Kp uu [2]
Cc1ncc(CN2CCn3nc(-c4ccccn4)cc3C2)c(N)n1 [Example 22, 2-Methyl-5-{[2-(pyridin-2-yl)-6,7-dihydropyrazolo[1,5-a]pyrazin-5(4H)-yl]methyl}pyrimidine-4-amine]	0.109 µM	62%	0.2
Cc1cccnc1-c1cc2n(n1)CCN(Cc1ccc3c(n1)CCC3)C2 [Example 113]	0.013 µM	104%	0.77
Cc1ncc(CN2CCn3nc(-c4ncccc4C)c(C)c3C2)cn1 [Example 116]	0.131 µM	67%	1.42
Cc1c(-c2ncccc2F)nn2c1CN(Cc1ccc(C(F)(F)F)cn1)CC2 [Example 128]	0.036 µM	86%	0.6
Fc1cccnc1-c1cc2n(n1)CCN(Cc1ccc3c(n1)CCC3)C2 [Example 129]	0.014 µM	91%	0.58
Cc1cccnc1-c1cc2n(n1)CCN(Cc1nc3ccccc3[nH]1)C2 [Example 144]	0.041 µM	49%	0.79
Cc1cccnc1-c1cc2n(n1)CCN(Cc1cnc(C)c(Cl)c1)C2 [Example 189, 5-[(5-Chloro-6-methylpyridin-3-yl)methyl]-2-(3-methylpyridin-2-yl)-4,5,6,7-tetrahydropyrazolo[1,5-a]pyrazine]	0.057 µM	49%	–
Cc1ncc(CN2CCn3nc(-c4ncccc4C)cc3C2)c(C)n1 [Example 190, 5-[(2,4-Dimethylpyrimidin-5-yl)methyl]-2-(3-methylpyridin-2-yl)-4,5,6,7-tetrahydropyrazolo[1,5-a]pyrazine]	0.06 µM	61%	–
Cc1ncc(CN2CCn3nc(-c4ncccc4F)cc3C2)c(C)n1 [Example 191]	0.043 µM	76%	–
Fc1cccnc1-c1cc2n(n1)CCN(Cc1cnc(C(F)(F)F)nc1)C2 [Example 198]	0.045 µM	33%	–

The next lines start with the values.

EC50 [1]	Emax [1]	Kp uu [2]	Compound
0.084 µM	35%	–	Cc1cccnc1-c1cc2n(n1)CCN(Cc1cnc(C(F)(F)F)nc1)C2 [Example 195]
0.055 µM	29%	–	Cc1cccnc1-c1cc2n(n1)CCN(Cc1cnc(C(F)F)nc1)C2 [Example 196]
0.101 µM	36%	–	Fc1cccnc1-c1cc2n(n1)CCN(Cc1cnc(C(F)F)nc1)C2 [Example 199]
0.037 µM	54%	–	Cc1cccnc1-c1cc2n(n1)CCN(Cc1cnc(C(C)C)nc1)C2 [Example 203]
0.044 µM	50%	–	CC(C)c1ncc(CN2CCn3nc(-c4ncccc4F)cc3C2)cn1 [Example 204]
